Experiments:
HeLa cells [1] = assay: Cellular uptake by ICP-MS in HeLa cells; type: cell-based; conditions: complex 40 μM, 12 h; for Amount of ruthenium associated with an average HeLa cell: 37° C., ICP-MS, untreated cells; for Uptake by BCN-C10-pretreated cells relative to untreated cells: HeLa cells, BCN-C10 pretreatment
Experimental: The cellular uptake of complexes 1a-5b was examined by ICP-MS. […] This finding should originate from intracellular esterases that convert the ester moieties of complex 3a into negatively charged carboxyl groups, enhancing its intracellular retention. […] Upon incubation of the untreated cells with the complexes, the amounts of ruthenium taken up by an average cell followed the order: 1 b<3b<5b<2b<4b, which seems to be in accordance with their lipophilic character. […] These findings indicate that the accumulation of the complexes 1 b-5b in BCN-C10-pretreated cells is not only associated with their lipophilicity, but also strongly affected by the bioorthogonal labeling of BCN-C10.
More specifically, for determining the cellular uptake of complexes 1a-3a, CHO-K1 cells were incubated in growth medium/DMSO (99:1, v/v) containing the iridium(III) complex (5 μM) in the dark at 37° C. under a 5% CO2 atmosphere for 1 h. The medium was removed, and the cell layer was thoroughly washed with PBS (1 mL×3). The cells were trypsinized by trypsin-EDTA (500 μL) and harvested with PBS. The resultant solution (2 mL) was heated with 65% HNO3 (2 mL) at 70° C. for 2 h, cooled to room temperature, and analyzed using an Elan 6100 DCR-ICP-MS (PerkinElmer SCIEX Instruments). For determining the cellular uptake of complexes 1 b 5b, HeLa cells with or without pretreatment of BCN-C10 were incubated in growth medium/DMSO (99:1, v/v) containing the ruthenium(II) complexes (40 μM) in the dark at 37° C. under a 5% CO2 atmosphere. After incubation for 12 h, the medium was removed and the cells were thoroughly washed with PBS (1 mL×3). The cells were typsinized by trypsin-EDTA (500 μL) and harvested with PBS. The resultant solution (1.5 mL) was heated with 65% HNO3 (1 mL) at 60° C. for 2 h, cooled to room temperature, and analyzed using an Elan 6100 DCR-ICP-MS.

HeLa cells [2] = assay: LSCM imaging of bioorthogonal labeling of BCN-C10 in HeLa cells; type: cell-based; conditions: for Subcellular structure stained / Staining pattern over time: BCN-C10-pretreated HeLa cells; for Intracellular emission with BCN-C10 pretreatment: HeLa cells, BCN-C10 200 μM 1 h, λex=488 nm; for Intracellular emission with BCN-C10 pretreatment / Staining pattern over time: complex 40 μM
Text: (“1 b”, “2b”, “3b”, “4b”, and “5b” indicate the complexes of the present invention; “—BCN-C10” means BCN-C10-untreated HeLa cells; “+BCN-C10” means BCN-C10-pretreated HeLa cells).
(“2b” and “5b” indicate the complexes of the present invention; “—BCN-C10” means BCN-C10-untreated HeLa cells; “+BCN-C10” means BCN-C10-pretreated HeLa cells).
The bioorthogonal labeling properties of complexes 1a-5b were investigated using CHO-K1 or HeLa cells with or without pretreatment of an exogenous molecule BCN-010, i.e., a BCN-modified decane molecule. The intracellular distribution of BCN-C10 was then imaged using laser scanning confocal microscopy (LSCM).
In the study of the ruthenium(II) nitrone complexes, live HeLa cells were treated with BCN-C10 (200 μM) for 1 h, thoroughly washed with PBS, then incubated with complexes 1b-5b (40 μM) for 12 h, and finally imaged by LSCM. More specifically, HeLa cells were incubated in growth medium/DMSO (99:1, v/v) containing BCN-C10 (200 μM) in the dark at 37° C. under a 5% CO2 atmosphere for 1 h. After treatment, the medium was removed, the cells were washed thoroughly with PBS (1 mL×3), and then incubated in growth medium/DMSO (99:1, v/v) containing the ruthenium(II) complex (40 μM) in the dark at 37° C. under a 5% CO2 atmosphere. After incubation for 3, 6, 12, or 24 h, the culture medium was removed and the cell was were washed with PBS (1 mL×3). The coverslip was mounted onto a sterilized glass slide and then imaging was performed using a Leica TCS SPE confocal microscope with an oil immersion 63× objective len and an excitation wavelength at 488 nm. […] Additionally, BCN-C10-pretreated cells were incubated with complexes 2b and 5b for different time periods (3, 6, 12, and 24 h) (FIG. 6). […] The regioselective staining is assumed to be closely related to the subcellular distribution of BCN-C10, and the lipophilicity and reactivity of the complexes.

SMILES	Amount of ruthenium associated with an average HeLa cell (HeLa cells [1]) [fmol]	Subcellular structure stained (HeLa cells [2])	Intracellular emission with BCN-C10 pretreatment (HeLa cells [2]; 12 h)	Uptake by BCN-C10-pretreated cells relative to untreated cells (HeLa cells [1]) [fold]	Staining pattern over time (HeLa cells [2]; 6 h)	Staining pattern over time (HeLa cells [2]; 12 h)	Staining pattern over time (HeLa cells [2]; 24 h)
Cc1ccnc(-c2cc(/C=[N+](/C)[O-])ccn2)c1.F[P-](F)(F)(F)(F)F.F[P-](F)(F)(F)(F)F.[Ru+2].c1ccc(-c2ccccn2)nc1.c1ccc(-c2ccccn2)nc1 [Complex 1b]	0.31 ± 0.01	punctate cell surface staining	weak but enhanced emission	–	–	–	–
CCCCNC(=O)c1ccnc(-c2cc(C(=O)NCCCC)ccn2)c1.CCCCNC(=O)c1ccnc(-c2cc(C(=O)NCCCC)ccn2)c1.Cc1ccnc(-c2cc(/C=[N+](/C)[O-])ccn2)c1.F[P-](F)(F)(F)(F)F.F[P-](F)(F)(F)(F)F.[Ru+2] [Complex 2b]	1.32 ± 0.08	cell membrane staining	intense subcellular staining	8.89	selectively lighted up the cell surface	intense cell membrane staining plus some sharp vesicles in the cytoplasmic regions adjacent to cell membrane	intense granular staining in the cytoplasm
Cc1ccnc(-c2cc(/C=[N+](\[O-])c3ccccc3)ccn2)c1.F[P-](F)(F)(F)(F)F.F[P-](F)(F)(F)(F)F.[Ru+2].c1ccc(-c2ccccn2)nc1.c1ccc(-c2ccccn2)nc1 [Complex 5b]	1.09 ± 0.03	cell membrane staining	intense subcellular staining	2.48	selectively lighted up the cell surface	intense cell membrane staining plus some sharp vesicles in the cytoplasmic regions adjacent to cell membrane	intense granular staining in the cytoplasm

From patent US10759994B2, “Luminogenic transition metal-based pyridyl complex and its use” (City University of Hong Kong, priority 2016, dated 2020)
